Measurements published in ChEMBL document CHEMBL4229379, “Synthesis and structure-activity relationship of novel bisindole amidines active against MDR Gram-positive and Gram-negative bacteria” (Eur J Med Chem, 2018).
≈ marks a conversion by molar mass, not a printed value.

Columns and labels:
[1] = system: Staphylococcus epidermidis; assay: Antibacterial activity against methicillin-sensitive Staphylococcus epidermidis ATCC 12228 after 18 hrs by CLSI broth microdilution method; assay type: functional; details: ATCC 12228, 18 h
[2] = system: Staphylococcus epidermidis; assay: Antibacterial activity against methicillin-resistant Staphylococcus epidermidis 12-8 after 18 hrs by CLSI broth microdilution method; assay type: functional; details: 12-8, 18 h
Staphylococcus aureus [3] = assay: Antibacterial activity against methicillin-sensitive Staphylococcus aureus ATCC 29213 after 18 hrs by CLSI broth microdilution method; assay type: functional; details: ATCC 29213, 18 h
Staphylococcus aureus [4] = assay: Antibacterial activity against methicillin-resistant Staphylococcus aureus 12-33 after 18 hrs by CLSI broth microdilution method; assay type: functional; details: 12-33, 18 h
Enterococcus faecalis [5] = assay: Antibacterial activity against vancomycin-sensitive Enterococcus faecalis ATCC 29212 after 18 hrs by CLSI broth microdilution method; assay type: functional; details: ATCC 29212, 18 h
Enterococcus faecalis [6] = assay: Antibacterial activity against vancomycin-resistant Enterococcus faecalis 09-9 after 18 hrs by CLSI broth microdilution method; assay type: functional; details: 09-9, 18 h
Enterococcus faecium [7] = assay: Antibacterial activity against vancomycin-resistant Enterococcus faecium ATCC 700221 after 18 hrs by CLSI broth microdilution method; assay type: functional; details: ATCC 700221, 18 h
Enterococcus faecium [8] = assay: Antibacterial activity against vancomycin-sensitive Enterococcus faecium 12-3 after 18 hrs by CLSI broth microdilution method; assay type: functional; details: 12-3, 18 h
Escherichia coli [9] = assay: Antibacterial activity against extended-spectrum beta-lactamase deficient Escherichia coli ATCC 25922 after 18 hrs by CLSI broth microdilution method; assay type: functional; details: ATCC 25922, 18 h
Escherichia coli [10] = assay: Antibacterial activity against extended-spectrum beta-lactamase harboring Escherichia coli 12-15 after 18 hrs by CLSI broth microdilution method; assay type: functional; details: 12-15, 18 h
Klebsiella pneumoniae [11] = assay: Antibacterial activity against extended-spectrum beta-lactamase harboring Klebsiella pneumoniae ATCC 700603 after 18 hrs by CLSI broth microdilution method; assay type: functional; details: Klebsiella pneumoniae, 700603, 18 h
Klebsiella pneumoniae [12] = assay: Antibacterial activity against new delhi metallo-beta-lactamase-1 harboring Klebsiella pneumoniae ATCC BAA-2146 after 18 hrs by CLSI broth microdilution method; assay type: functional; details: ATCC BAA-2146, 18 h
Klebsiella pneumoniae [13] = assay: Antibacterial activity against extended-spectrum beta-lactamase harboring Klebsiella pneumoniae 12-8 after 18 hrs by CLSI broth microdilution method; assay type: functional; details: 12-8, 18 h
Pseudomonas aeruginosa [14] = assay: Antibacterial activity against Pseudomonas aeruginosa ATCC 27853 after 18 hrs by CLSI broth microdilution method; assay type: functional; details: ATCC 27853, 18 h
[15] = system: Acinetobacter calcoaceticus; assay: Antibacterial activity against Acinetobacter calcoaceticus ATCC 19606 after 18 hrs by CLSI broth microdilution method; assay type: functional; details: ATCC 19606, 18 h
Enterobacter cloacae = assay: Antibacterial activity against Enterobacter cloacae ATCC 43560 after 18 hrs by CLSI broth microdilution method; assay type: functional; details: ATCC 43560, 18 h
Proteus mirabilis = assay: Antibacterial activity against Proteus mirabilis 12-6 after 18 hrs by CLSI broth microdilution method; assay type: functional; details: 12-6, 18 h
[16] = Cytotoxicity against HEK293T cells assessed as reduction in cell viability after 48 hrs by MTS assay; assay type: cell-based, HEK-293T; details: human
[17] = system: Staphylococcus epidermidis; assay: Antibacterial activity against methicillin-sensitive Staphylococcus epidermidis 12-6 after 18 hrs by CLSI broth microdilution method; assay type: functional; details: 12-6, 18 h
Staphylococcus aureus [18] = assay: Antibacterial activity against methicillin-resistant Staphylococcus aureus ATCC 33591 after 18 hrs by CLSI broth microdilution method; assay type: functional; details: ATCC 33591, 18 h
Staphylococcus aureus [19] = assay: Antibacterial activity against methicillin-sensitive Staphylococcus aureus 15 after 18 hrs by CLSI broth microdilution method; assay type: functional; details: Staphylococcus aureus, 15, 18 h
Staphylococcus aureus [20] = assay: Antibacterial activity against methicillin-sensitive Staphylococcus aureus 12-28 after 18 hrs by CLSI broth microdilution method; assay type: functional; details: 12-28, 18 h
Enterococcus faecalis [21] = assay: Antibacterial activity against vancomycin-resistant Enterococcus faecalis ATCC 51299 after 18 hrs by CLSI broth microdilution method; assay type: functional; details: ATCC 51299, 18 h
Enterococcus faecalis [22] = assay: Antibacterial activity against vancomycin-sensitive Enterococcus faecalis 12-5 after 18 hrs by CLSI broth microdilution method; assay type: functional; details: 12-5, 18 h
Enterococcus faecium [23] = assay: Antibacterial activity against vancomycin-resistant Enterococcus faecium 12-1 after 18 hrs by CLSI broth microdilution method; assay type: functional; details: 12-1, 18 h
Escherichia coli [24] = assay: Antibacterial activity against extended-spectrum beta-lactamase deficient Escherichia coli 1515 after 18 hrs by CLSI broth microdilution method; assay type: functional; details: Escherichia coli, 1515, 18 h
Escherichia coli [25] = assay: Antibacterial activity against extended-spectrum beta-lactamase deficient Escherichia coli 12-14 after 18 hrs by CLSI broth microdilution method; assay type: functional; details: 12-14, 18 h
Klebsiella pneumoniae [26] = assay: Antibacterial activity against extended-spectrum beta-lactamase deficient Klebsiella pneumoniae 7 after 18 hrs by CLSI broth microdilution method; assay type: functional; details: Klebsiella pneumoniae, 7, 18 h
Klebsiella pneumoniae [27] = assay: Antibacterial activity against extended-spectrum beta-lactamase deficient Klebsiella pneumoniae 12-4 after 18 hrs by CLSI broth microdilution method; assay type: functional; details: 12-4, 18 h
Pseudomonas aeruginosa [28] = assay: Antibacterial activity against Pseudomonas aeruginosa PAO1 after 18 hrs by CLSI broth microdilution method; assay type: functional; details: PAO1, 18 h
Pseudomonas aeruginosa [29] = assay: Antibacterial activity against Pseudomonas aeruginosa 12-16 after 18 hrs by CLSI broth microdilution method; assay type: functional; details: 12-16, 18 h
Klebsiella aerogenes = assay: Antibacterial activity against Enterobacter aerogenes ATCC 13048 after 18 hrs by CLSI broth microdilution method; assay type: functional; details: ATCC 13048, 18 h
Serratia marcescens = assay: Antibacterial activity against Serratia marcescens ATCC 21074 after 18 hrs by CLSI broth microdilution method; assay type: functional; details: ATCC 21074, 18 h
Providencia rettgeri = assay: Antibacterial activity against Providencia rettgeri ATCC 31052 after 18 hrs by CLSI broth microdilution method; assay type: functional; details: ATCC 31052, 18 h
Proteus vulgaris = assay: Antibacterial activity against Proteus vulgaris ATCC 29905 after 18 hrs by CLSI broth microdilution method; assay type: functional; details: ATCC 29905, 18 h
[30] = system: Stenotrophomonas maltophilia; assay: Antibacterial activity against Stenotrophomonas maltophilia ATCC 13636 after 18 hrs by CLSI broth microdilution method; assay type: functional; details: ATCC 13636, 18 h
Citrobacter freundii = assay: Antibacterial activity against Citrobacter freundii ATCC 43864 after 18 hrs by CLSI broth microdilution method; assay type: functional; details: ATCC 43864, 18 h

N=C(c1ccc2cc(-c3ccc(-c4cc5ccc(C(=N)N6CCC6)cc5[nH]4)cc3)[nH]c2c1)N1CCC1
MIC [1]: 0.125 µg/mL (≈ 0.264 µM)
MIC [2]: 0.125 µg/mL (≈ 0.264 µM)
MIC (Staphylococcus aureus [3]): 2 µg/mL (≈ 4.23 µM)
MIC (Staphylococcus aureus [4]): 4 µg/mL (≈ 8.46 µM)
MIC (Enterococcus faecalis [5]): 4 µg/mL (≈ 8.46 µM)
MIC (Enterococcus faecalis [6]): 1 µg/mL (≈ 2.12 µM)
MIC (Enterococcus faecium [7]): 1 µg/mL (≈ 2.12 µM)
MIC (Enterococcus faecium [8]): 2 µg/mL (≈ 4.23 µM)
MIC (Escherichia coli [9]): 1 µg/mL (≈ 2.12 µM)
MIC (Escherichia coli [10]): 2 µg/mL (≈ 4.23 µM)
MIC (Klebsiella pneumoniae [11]): 32 µg/mL (≈ 67.7 µM)
MIC (Klebsiella pneumoniae [12]): 16 µg/mL (≈ 33.9 µM)
MIC (Klebsiella pneumoniae [13]): 32 µg/mL (≈ 67.7 µM)
MIC (Pseudomonas aeruginosa [14]): 64 µg/mL (≈ 135 µM)
MIC [15]: 32 µg/mL (≈ 67.7 µM)
MIC (Enterobacter cloacae): 8 µg/mL (≈ 16.9 µM)
MIC (Proteus mirabilis): 16 µg/mL (≈ 33.9 µM)
CC50 at 48 h [16]: 2.84 µg/mL (≈ 6.01 µM)
MIC [17]: 0.125 µg/mL (≈ 0.264 µM)
MIC (Staphylococcus aureus [18]): 1 µg/mL (≈ 2.12 µM)
MIC (Staphylococcus aureus [19]): 2 µg/mL (≈ 4.23 µM)
MIC (Staphylococcus aureus [20]): 2 µg/mL (≈ 4.23 µM)
MIC (Enterococcus faecalis [21]): 2 µg/mL (≈ 4.23 µM)
MIC (Enterococcus faecalis [22]): 4 µg/mL (≈ 8.46 µM)
MIC (Enterococcus faecium [23]): 1 µg/mL (≈ 2.12 µM)
MIC (Escherichia coli [24]): 2 µg/mL (≈ 4.23 µM)
MIC (Escherichia coli [25]): 2 µg/mL (≈ 4.23 µM)
MIC (Klebsiella pneumoniae [26]): 16 µg/mL (≈ 33.9 µM)
MIC (Klebsiella pneumoniae [27]): 8 µg/mL (≈ 16.9 µM)
MIC (Pseudomonas aeruginosa [28]): 128 µg/mL (≈ 271 µM)
MIC (Pseudomonas aeruginosa [29]): 128 µg/mL (≈ 271 µM)
MIC (Klebsiella aerogenes): 4 µg/mL (≈ 8.46 µM)
MIC (Serratia marcescens): 32 µg/mL (≈ 67.7 µM)
MIC (Providencia rettgeri): 8 µg/mL (≈ 16.9 µM)
MIC (Proteus vulgaris): 32 µg/mL (≈ 67.7 µM)
MIC [30]: 8 µg/mL (≈ 16.9 µM)
MIC (Citrobacter freundii): 4 µg/mL (≈ 8.46 µM)

CN(C)CCNC(=N)c1ccc2cc(-c3ccc(-c4cc5ccc(C(=N)NCCN(C)C)cc5[nH]4)cc3)[nH]c2c1
MIC [1]: 0.5 µg/mL (≈ 0.935 µM)
MIC [2]: 1 µg/mL (≈ 1.87 µM)
MIC (Staphylococcus aureus [3]): 2 µg/mL (≈ 3.74 µM)
MIC (Staphylococcus aureus [4]): 2 µg/mL (≈ 3.74 µM)
MIC (Enterococcus faecalis [5]): 4 µg/mL (≈ 7.48 µM)
MIC (Enterococcus faecalis [6]): 4 µg/mL (≈ 7.48 µM)
MIC (Enterococcus faecium [7]): 4 µg/mL (≈ 7.48 µM)
MIC (Enterococcus faecium [8]): 8 µg/mL (≈ 15 µM)
MIC (Escherichia coli [9]): 8 µg/mL (≈ 15 µM)
MIC (Escherichia coli [10]): 16 µg/mL (≈ 29.9 µM)
MIC (Klebsiella pneumoniae [11]): 16 µg/mL (≈ 29.9 µM)
MIC (Klebsiella pneumoniae [12]): 8 µg/mL (≈ 15 µM)
MIC (Klebsiella pneumoniae [13]): 8 µg/mL (≈ 15 µM)
MIC (Pseudomonas aeruginosa [14]): 16 µg/mL (≈ 29.9 µM)
MIC [15]: > 128 µg/mL
MIC (Enterobacter cloacae): 8 µg/mL (≈ 15 µM)
MIC (Proteus mirabilis): 128 µg/mL (≈ 239 µM)
CC50 at 48 h [16]: 31.2 µg/mL (≈ 58.4 µM)
MIC [17]: 0.5 µg/mL (≈ 0.935 µM)
MIC (Staphylococcus aureus [18]): 2 µg/mL (≈ 3.74 µM)
MIC (Staphylococcus aureus [19]): 2 µg/mL (≈ 3.74 µM)
MIC (Staphylococcus aureus [20]): 2 µg/mL (≈ 3.74 µM)
MIC (Enterococcus faecalis [21]): 4 µg/mL (≈ 7.48 µM)
MIC (Enterococcus faecalis [22]): 4 µg/mL (≈ 7.48 µM)
MIC (Enterococcus faecium [23]): 4 µg/mL (≈ 7.48 µM)
MIC (Escherichia coli [24]): 8 µg/mL (≈ 15 µM)
MIC (Escherichia coli [25]): 8 µg/mL (≈ 15 µM)
MIC (Klebsiella pneumoniae [26]): 8 µg/mL (≈ 15 µM)
MIC (Klebsiella pneumoniae [27]): 8 µg/mL (≈ 15 µM)
MIC (Pseudomonas aeruginosa [28]): 64 µg/mL (≈ 120 µM)
MIC (Pseudomonas aeruginosa [29]): 64 µg/mL (≈ 120 µM)
MIC (Klebsiella aerogenes): 8 µg/mL (≈ 15 µM)
MIC (Serratia marcescens): 16 µg/mL (≈ 29.9 µM)
MIC (Providencia rettgeri): 16 µg/mL (≈ 29.9 µM)
MIC (Proteus vulgaris): 16 µg/mL (≈ 29.9 µM)
MIC [30]: 16 µg/mL (≈ 29.9 µM)
MIC (Citrobacter freundii): 8 µg/mL (≈ 15 µM)
